# Laboratory results reported in PubChem BioAssay AID330 (DTP/NCI, 2004).
# Several values for one entry are separate records, joined by “and”; a condition that tells them apart may be missing. Equal values may be shown once. Toxic doses and inconclusive results are not listed.
# Tested on: P388 leukemia ip, CD2F1 mice, survival T/C
# Experiment: NCI In Vivo Anticancer Drug Screen. Data for tumor model P388 Leukemia (intraperitoneal) in CD2F1 (CDF1) mice
# Details: endpoint: median survival time, higher = longer survival
# Outline: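 Mice carrying the transplanted tumor received test compound or vehicle. Survival was recorded in each group, and the value is the treated-group measurement divided by that of the vehicle-treated control group.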
# [1] = dose: 50.0 mg/kg/injection, schedule: Q01DX005 (ip), vehicle: saline
# [2] = dose: 100.0 mg/kg/injection, schedule: Q01DX005 (ip), vehicle: saline
# [3] = dose: 200.0 mg/kg/injection, schedule: Q01DX005 (ip), vehicle: saline
# [4] = dose: 60.0 mg/kg/injection, schedule: Q01DX005 (ip), vehicle: Klucel (hydroxypropylcellulose) (HPC)
# [5] = dose: 120.0 mg/kg/injection, schedule: Q01DX005 (ip), vehicle: Klucel (hydroxypropylcellulose) (HPC)
# [6] = dose: 25.0 mg/kg/injection, schedule: Q01DX005 (ip), vehicle: Klucel (hydroxypropylcellulose) (HPC)
# [7] = dose: 50.0 mg/kg/injection, schedule: Q01DX005 (ip), vehicle: Klucel (hydroxypropylcellulose) (HPC)
# [8] = dose: 100.0 mg/kg/injection, schedule: Q01DX005 (ip), vehicle: Klucel (hydroxypropylcellulose) (HPC)
# [9] = dose: 60.0 mg/kg/injection, schedule: Q01DX005 (ip), vehicle: saline with Tween-80
# [10] = dose: 120.0 mg/kg/injection, schedule: Q01DX005 (ip), vehicle: saline with Tween-80
# [11] = dose: 240.0 mg/kg/injection, schedule: Q01DX005 (ip), vehicle: saline with Tween-80
# [12] = dose: 100.0 mg/kg/injection, schedule: Q01DX001 (ip), vehicle: saline with Tween-80
# [13] = dose: 200.0 mg/kg/injection, schedule: Q01DX001 (ip), vehicle: saline with Tween-80
# [14] = dose: 400.0 mg/kg/injection, schedule: Q01DX001 (ip), vehicle: saline with Tween-80
# [15] = dose: 50.0 mg/kg/injection, schedule: Q01DX005 (ip), vehicle: saline with Tween-80
# [16] = dose: 50.0 mg/kg/injection, schedule: Q01DX009 (ip), vehicle: saline with Tween-80
# [17] = dose: 100.0 mg/kg/injection, schedule: Q01DX009 (ip), vehicle: saline with Tween-80
# [18] = dose: 200.0 mg/kg/injection, schedule: Q01DX009 (ip), vehicle: saline with Tween-80
# [19] = dose: 200.0 mg/kg/injection, schedule: Q01DX005 (ip), vehicle: Klucel (hydroxypropylcellulose) (HPC)
# [20] = dose: 200.0 mg/kg/injection, schedule: Q04DX003 (ip), vehicle: saline with Tween-80
smiles,measurement,setting,value
CC(C)c1ccc([C](C)(CC(C)(C)C)[Sn]([CH3])([CH3])[CH3])cc1 (stereo not given),T/C,"dose: 3.13 mg/kg/injection, schedule: Q04DX003 (ip), vehicle: Klucel (hydroxypropylcellulose) (HPC)",105 % of control
same,T/C,"dose: 6.25 mg/kg/injection, schedule: Q04DX003 (ip), vehicle: Klucel (hydroxypropylcellulose) (HPC)",92 % of control
same,T/C,"dose: 12.5 mg/kg/injection, schedule: Q04DX003 (ip), vehicle: Klucel (hydroxypropylcellulose) (HPC)",91 % of control
CC1CC(C(=O)O)N1 (stereo not given),T/C,[1],101 % of control
same,T/C,[2],98 % of control
same,T/C,[3],97 % of control
CC(N)(CO)C(=O)O (stereo not given),T/C,"dose: 100.0 mg/kg/injection, schedule: Q04DX003 (ip), vehicle: saline",104 % of control
same,T/C,"dose: 200.0 mg/kg/injection, schedule: Q04DX003 (ip), vehicle: saline",90 % of control
same,T/C,"dose: 400.0 mg/kg/injection, schedule: Q04DX003 (ip), vehicle: saline",100 % of control
C/C(CC1C(CCO)C1(C)C)=N\NC(N)=O (stereo not given),T/C,[4],98 % of control
same,T/C,[5],100 % of control
same,T/C,"dose: 240.0 mg/kg/injection, schedule: Q01DX005 (ip), vehicle: Klucel (hydroxypropylcellulose) (HPC)",106 % of control
COC(=O)/C1=C\CC/C(C(=O)OC)=C\C(=O)CCC1,T/C,[6],101 % of control
same,T/C,[7],101 % of control
same,T/C,[8],103 % of control
CC(C)C1=CC(=O)C(C)(C2C(O)CC3(C)C4CC=C5C(CCC(O)C5(C)C)C4(C)C(=O)CC23C)O1 (stereo not given),T/C,"dose: 10.13 mg/kg/injection, schedule: Q01DX005 (ip), vehicle: saline + alcohol",97 % of control
same,T/C,"dose: 20.25 mg/kg/injection, schedule: Q01DX005 (ip), vehicle: saline + alcohol",98 % of control
same,T/C,"dose: 40.05 mg/kg/injection, schedule: Q01DX005 (ip), vehicle: saline + alcohol",101 % of control
same,T/C,"dose: 81.0 mg/kg/injection, schedule: Q01DX005 (ip), vehicle: saline + alcohol",97 % of control
COc1cc(C2C(C#N)=C(C)Nc3nc(N)nc(N)c32)cc(OC)c1OC (stereo not given),T/C,[9],94 % of control
same,T/C,[10],106 % of control
same,T/C,[11],104 % of control
CC1(C)C2CCC1(C)C(O)C2N (stereo not given),T/C,"dose: 30.0 mg/kg/injection, schedule: Q01DX005 (ip), vehicle: saline with Tween-80",93 % of control
same,T/C,[9],94 % of control and 95 % of control
O=C1C/C(=N\Nc2nc(-c3ccc(Cl)cc3)cs2)C(c2ccccc2)N1c1ccccc1 (stereo not given),T/C,[12],98 % of control
same,T/C,[13],90 % of control
same,T/C,[14],90 % of control
COC(=O)C1(CC(=O)c2ccc3ccccc3c2)NC(=S)NC(=O)C1C#N (stereo not given),T/C,[9],95 % of control
same,T/C,[10],95 % of control
same,T/C,[11],91 % of control
COc1ccc(-c2c(-c3ccccc3)oc(/N=C/c3ccccc3)c2-c2ccccc2)cc1,T/C,"dose: 12.5 mg/kg/injection, schedule: Q01DX005 (ip), vehicle: saline with Tween-80",101 % of control
same,T/C,"dose: 25.0 mg/kg/injection, schedule: Q01DX005 (ip), vehicle: saline with Tween-80",90 % of control
same,T/C,[15],90 % of control
CN1CCC(=C(C#N)C(=O)O)CC1,T/C,[1],103 % of control
same,T/C,[2],95 % of control
same,T/C,[3],103 % of control
CC1(C)N=C(N)N=C(N)N1c1ccc(CCCCc2ccc(Cl)c(S(=O)(=O)F)c2)c(Cl)c1,T/C,"dose: 2.0 mg/kg/injection, schedule: Q01DX009 (ip), vehicle: saline with Tween-80",154 % of control
same,T/C,"dose: 8.0 mg/kg/injection, schedule: Q01DX009 (ip), vehicle: saline with Tween-80",154 % of control
same,T/C,"dose: 8.0 mg/kg/injection, schedule: Q01DX009 (ip), vehicle: saline",172 % of control and 175 % of control
same,T/C,"dose: 12.0 mg/kg/injection, schedule: Q01DX009 (ip), vehicle: saline",180 % of control and 181 % of control
same,T/C,"dose: 18.0 mg/kg/injection, schedule: Q01DX009 (ip), vehicle: saline",163 % of control and 172 % of control and 180 % of control
same,T/C,"dose: 27.0 mg/kg/injection, schedule: Q01DX009 (ip), vehicle: saline",154 % of control and 172 % of control
C=CCSc1nc(N)nc(Nc2ccccc2)n1,T/C,[12],98 % of control
same,T/C,[13],92 % of control
same,T/C,[14],87 % of control
[O-]/[N+](=C\c1ccccc1)CCO,T/C,[16],97 % of control
same,T/C,[17],101 % of control
same,T/C,[18],106 % of control
Cc1ccccc1N=Nc1c(O)n(-c2ccc(Br)cc2)c(=S)n(-c2ccccc2)c1=O,T/C,[12],98 % of control
same,T/C,[13],98 % of control
same,T/C,[14],89 % of control
N/N=C1\C(Cl)=C(Cl)c2ccccc21,T/C,[7],90 % of control
same,T/C,[8],93 % of control
same,T/C,[19],90 % of control
Cc1ccc(/[N+]([O-])=C/c2ccccc2)cc1,T/C,[9],92 % of control
same,T/C,[10],94 % of control
same,T/C,[11],89 % of control
c1cc2[nH]c3ccncc3c2cn1,T/C,"dose: 25.0 mg/kg/injection, schedule: Q01DX009 (ip), vehicle: saline with Tween-80",102 % of control
same,T/C,[16],105 % of control
CS/C(=C/c1ccc2ccccc2[n+]1C)N1CCSCC1,T/C,"dose: 1.56 mg/kg/injection, schedule: Q01DX005 (ip), vehicle: saline with Tween-80",108 % of control
same,T/C,"dose: 3.13 mg/kg/injection, schedule: Q01DX005 (ip), vehicle: saline with Tween-80",113 % of control
same,T/C,"dose: 6.25 mg/kg/injection, schedule: Q01DX005 (ip), vehicle: saline with Tween-80",113 % of control
CC1=Nc2ccccc2N(C)/C1=C/C1=CC(=O)c2ccccc2C1=O,T/C,"dose: 100.0 mg/kg/injection, schedule: Q04DX003 (ip), vehicle: saline with Tween-80",108 % of control
same,T/C,[20],117 % of control
CN[C@H]1CCc2cc(OC)c(OC)c(OC)c2-c2ccc(O)c(=O)cc21,T/C,"dose: 2.5 mg/kg/injection, schedule: Q01DX009 (ip), vehicle: Klucel (hydroxypropylcellulose) (HPC)",103 % of control
same,T/C,"dose: 5.0 mg/kg/injection, schedule: Q01DX009 (ip), vehicle: Klucel (hydroxypropylcellulose) (HPC)",100 % of control
same,T/C,"dose: 10.0 mg/kg/injection, schedule: Q01DX009 (ip), vehicle: Klucel (hydroxypropylcellulose) (HPC)",99 % of control
same,T/C,"dose: 20.0 mg/kg/injection, schedule: Q01DX009 (ip), vehicle: Klucel (hydroxypropylcellulose) (HPC)",93 % of control
same,T/C,"dose: 40.0 mg/kg/injection, schedule: Q01DX009 (ip), vehicle: Klucel (hydroxypropylcellulose) (HPC)",92 % of control
same,T/C,"dose: 80.0 mg/kg/injection, schedule: Q01DX009 (ip), vehicle: Klucel (hydroxypropylcellulose) (HPC)",108 % of control
O=C1C2=C(Nc3cc([N+](=O)[O-])ccc3N2)OC1c1ccccn1 (stereo not given),T/C,"dose: 30.0 mg/kg/injection, schedule: Q01DX005 (ip), vehicle: Klucel (hydroxypropylcellulose) (HPC)",119 % of control
same,T/C,[4],122 % of control
same,T/C,[5],121 % of control
CC(=O)OC1NC(=O)C(OC(C)=O)NC1=O (stereo not given),T/C,[6],100 % of control
same,T/C,[7],98 % of control and 102 % of control (2×)
same,T/C,[8],101 % of control (2×) and 120 % of control
same,T/C,[19],102 % of control and 107 % of control and 110 % of control
Cc1[nH]nc2c1NC(=O)OC(C)(C)C2,T/C,[15],106 % of control
same,T/C,"dose: 100.0 mg/kg/injection, schedule: Q01DX005 (ip), vehicle: saline with Tween-80",99 % of control
same,T/C,"dose: 200.0 mg/kg/injection, schedule: Q01DX005 (ip), vehicle: saline with Tween-80",101 % of control
Clc1ccc2[nH]c3c(c2c1)CCCC3,T/C,[20],94 % of control
CC1(C)CC(NC(=O)c2ccccc2)C(=O)O1 (stereo not given),T/C,[16],99 % of control
same,T/C,[17],100 % of control
same,T/C,[18],98 % of control
Cc1[nH]c(=O)[nH]c(=O)c1/C=C/C(=O)NC(CO)CSC(C)C (stereo not given),T/C,"dose: 50.0 mg/kg/injection, schedule: Q01DX009 (ip), vehicle: other",86 % of control
same,T/C,"dose: 200.0 mg/kg/injection, schedule: Q01DX009 (ip), vehicle: other",90 % of control
same,T/C,"dose: 400.0 mg/kg/injection, schedule: Q01DX009 (ip), vehicle: other",89 % of control
C[n+]1cccc(NC(=O)c2ccc(NC(=O)c3ccc(C(=O)Nc4ccc(NC(=N)N)cc4)cc3)cc2)c1,T/C,"dose: 4.7 mg/kg/injection, schedule: Q01DX009 (ip), vehicle: saline",110 % of control
same,T/C,"dose: 9.4 mg/kg/injection, schedule: Q01DX009 (ip), vehicle: saline",90 % of control
same,T/C,"dose: 12.5 mg/kg/injection, schedule: Q04DX003 (ip), vehicle: saline",195 % of control
